Data: ChEMBL document CHEMBL5331073, “Discovery of novel 7,7-dimethyl-6,7-dihydro-5H-pyrrolo[3,4-d]pyrimidines as ATR inhibitors based on structure-based drug design” (Eur J Med Chem, 2023)
pIC50: −log10 of the molar value.

Legend:
A549 [1] = assay: Synergistic antiproliferative activity against ATM-proficient human A549 cells assessed as reduction in cell viability incubated for 3 days in presence of oxaliplatin by MTT assay; format: functional, cell-based; settings: A549, 72 h
HT-29 [2] = assay: Antiproliferative activity against ATM-proficient human HT-29 cells assessed as reduction in cell proliferation incubated for 3 days by MTT assay; format: functional, cell-based; settings: HT-29, 72 h
OVCAR-3 = assay: Antiproliferative activity against ATM-deficient human OVCAR-3 cells assessed as reduction in cell viability incubated for 3 days by MTT assay; format: functional, cell-based; settings: OVCAR-3, 72 h
MCF7 [3] = assay: Antiproliferative activity against human MCF7 cells assessed as reduction in cell viability incubated for 3 days by MTT assay; format: functional, cell-based; settings: MCF7, 72 h
LoVo [4] = assay: Antiproliferative activity against ATM-deficient human LoVo cells assessed as reduction in cell proliferation incubated for 3 days by MTT assay; format: functional, cell-based; settings: 72 h
A549 [5] = assay: Synergistic antiproliferative activity against ATM-proficient human A549 cells assessed as reduction in cell viability incubated for 3 days in presence of cisplatin by MTT assay; format: functional, cell-based; settings: A549, 72 h
MDA-MB-231 [6] = assay: Synergistic antiproliferative activity against human MDA-MB-231 cells assessed as reduction in cell viability incubated for 3 days in presence of olaparib by MTT assay; format: functional, cell-based; settings: MDA-MB-231, 72 h
SW-620 = assay: Antiproliferative activity against ATM-deficient human SW620 cells assessed as reduction in cell viability incubated for 3 days by MTT assay; format: functional, cell-based; settings: SW-620, 72 h
A549 [7] = assay: Antiproliferative activity against ATM-proficient human A549 cells assessed as reduction in cell viability incubated for 3 days in presence of AZD-1390 by MTT assay; format: functional, cell-based; settings: A549, 72 h
MDA-MB-231 [8] = assay: Antiproliferative activity against human MDA-MB-231 cells assessed as reduction in cell viability incubated for 3 days by MTT assay; format: functional, cell-based; settings: MDA-MB-231, 72 h
MCF7 [9] = assay: Synergistic antiproliferative activity against human MCF7 cells assessed as reduction in cell viability incubated for 3 days in presence of olaparib by MTT assay; format: functional, cell-based; settings: MCF7, 72 h
HCT-116 [10] = assay: Antiproliferative activity against ATM-proficient human HCT-116 cells assessed as reduction in cell viability incubated for 3 days by MTT assay; format: functional, cell-based; settings: HCT-116, 72 h
HCT-116 [11] = assay: Synergistic antiproliferative activity against ATM-proficient human HCT-116 cells assessed as reduction in cell viability incubated for 3 days in presence of oxaliplatin by MTT assay; format: functional, cell-based; settings: HCT-116, 72 h
HCT-116 [12] = assay: Antiproliferative activity against ATM-proficient human HCT-116 cells assessed as reduction in cell viability incubated for 3 days in presence of AZD-1390 by MTT assay; format: functional, cell-based; settings: HCT-116, 72 h
HT-29 [13] = assay: Antiproliferative activity against ATM-proficient human HT-29 cells assessed as reduction in cell viability incubated for 3 days in presence of AZD-1390 by MTT assay; format: functional, cell-based; settings: HT-29, 72 h
A549 [14] = assay: Antiproliferative activity against ATM-proficient human A549 cells assessed as reduction in cell viability incubated for 3 days by MTT assay; format: functional, cell-based; settings: A549, 72 h
HCT-116 [15] = assay: Synergistic antiproliferative activity against ATM-proficient human HCT-116 cells assessed as reduction in cell viability incubated for 3 days in presence of cisplatin by MTT assay; format: functional, cell-based; settings: HCT-116, 72 h
[16] = molecular target: T1, Serine/threonine-protein kinase ATR (Homo sapiens, UniProt Q13535); assay: Inhibition of ATR (unknown origin) using peptide as substrate preincubated for 10 mins followed by substrate addition by microplate reader analysis
Target sequence in this assay (Q13535 whole entry): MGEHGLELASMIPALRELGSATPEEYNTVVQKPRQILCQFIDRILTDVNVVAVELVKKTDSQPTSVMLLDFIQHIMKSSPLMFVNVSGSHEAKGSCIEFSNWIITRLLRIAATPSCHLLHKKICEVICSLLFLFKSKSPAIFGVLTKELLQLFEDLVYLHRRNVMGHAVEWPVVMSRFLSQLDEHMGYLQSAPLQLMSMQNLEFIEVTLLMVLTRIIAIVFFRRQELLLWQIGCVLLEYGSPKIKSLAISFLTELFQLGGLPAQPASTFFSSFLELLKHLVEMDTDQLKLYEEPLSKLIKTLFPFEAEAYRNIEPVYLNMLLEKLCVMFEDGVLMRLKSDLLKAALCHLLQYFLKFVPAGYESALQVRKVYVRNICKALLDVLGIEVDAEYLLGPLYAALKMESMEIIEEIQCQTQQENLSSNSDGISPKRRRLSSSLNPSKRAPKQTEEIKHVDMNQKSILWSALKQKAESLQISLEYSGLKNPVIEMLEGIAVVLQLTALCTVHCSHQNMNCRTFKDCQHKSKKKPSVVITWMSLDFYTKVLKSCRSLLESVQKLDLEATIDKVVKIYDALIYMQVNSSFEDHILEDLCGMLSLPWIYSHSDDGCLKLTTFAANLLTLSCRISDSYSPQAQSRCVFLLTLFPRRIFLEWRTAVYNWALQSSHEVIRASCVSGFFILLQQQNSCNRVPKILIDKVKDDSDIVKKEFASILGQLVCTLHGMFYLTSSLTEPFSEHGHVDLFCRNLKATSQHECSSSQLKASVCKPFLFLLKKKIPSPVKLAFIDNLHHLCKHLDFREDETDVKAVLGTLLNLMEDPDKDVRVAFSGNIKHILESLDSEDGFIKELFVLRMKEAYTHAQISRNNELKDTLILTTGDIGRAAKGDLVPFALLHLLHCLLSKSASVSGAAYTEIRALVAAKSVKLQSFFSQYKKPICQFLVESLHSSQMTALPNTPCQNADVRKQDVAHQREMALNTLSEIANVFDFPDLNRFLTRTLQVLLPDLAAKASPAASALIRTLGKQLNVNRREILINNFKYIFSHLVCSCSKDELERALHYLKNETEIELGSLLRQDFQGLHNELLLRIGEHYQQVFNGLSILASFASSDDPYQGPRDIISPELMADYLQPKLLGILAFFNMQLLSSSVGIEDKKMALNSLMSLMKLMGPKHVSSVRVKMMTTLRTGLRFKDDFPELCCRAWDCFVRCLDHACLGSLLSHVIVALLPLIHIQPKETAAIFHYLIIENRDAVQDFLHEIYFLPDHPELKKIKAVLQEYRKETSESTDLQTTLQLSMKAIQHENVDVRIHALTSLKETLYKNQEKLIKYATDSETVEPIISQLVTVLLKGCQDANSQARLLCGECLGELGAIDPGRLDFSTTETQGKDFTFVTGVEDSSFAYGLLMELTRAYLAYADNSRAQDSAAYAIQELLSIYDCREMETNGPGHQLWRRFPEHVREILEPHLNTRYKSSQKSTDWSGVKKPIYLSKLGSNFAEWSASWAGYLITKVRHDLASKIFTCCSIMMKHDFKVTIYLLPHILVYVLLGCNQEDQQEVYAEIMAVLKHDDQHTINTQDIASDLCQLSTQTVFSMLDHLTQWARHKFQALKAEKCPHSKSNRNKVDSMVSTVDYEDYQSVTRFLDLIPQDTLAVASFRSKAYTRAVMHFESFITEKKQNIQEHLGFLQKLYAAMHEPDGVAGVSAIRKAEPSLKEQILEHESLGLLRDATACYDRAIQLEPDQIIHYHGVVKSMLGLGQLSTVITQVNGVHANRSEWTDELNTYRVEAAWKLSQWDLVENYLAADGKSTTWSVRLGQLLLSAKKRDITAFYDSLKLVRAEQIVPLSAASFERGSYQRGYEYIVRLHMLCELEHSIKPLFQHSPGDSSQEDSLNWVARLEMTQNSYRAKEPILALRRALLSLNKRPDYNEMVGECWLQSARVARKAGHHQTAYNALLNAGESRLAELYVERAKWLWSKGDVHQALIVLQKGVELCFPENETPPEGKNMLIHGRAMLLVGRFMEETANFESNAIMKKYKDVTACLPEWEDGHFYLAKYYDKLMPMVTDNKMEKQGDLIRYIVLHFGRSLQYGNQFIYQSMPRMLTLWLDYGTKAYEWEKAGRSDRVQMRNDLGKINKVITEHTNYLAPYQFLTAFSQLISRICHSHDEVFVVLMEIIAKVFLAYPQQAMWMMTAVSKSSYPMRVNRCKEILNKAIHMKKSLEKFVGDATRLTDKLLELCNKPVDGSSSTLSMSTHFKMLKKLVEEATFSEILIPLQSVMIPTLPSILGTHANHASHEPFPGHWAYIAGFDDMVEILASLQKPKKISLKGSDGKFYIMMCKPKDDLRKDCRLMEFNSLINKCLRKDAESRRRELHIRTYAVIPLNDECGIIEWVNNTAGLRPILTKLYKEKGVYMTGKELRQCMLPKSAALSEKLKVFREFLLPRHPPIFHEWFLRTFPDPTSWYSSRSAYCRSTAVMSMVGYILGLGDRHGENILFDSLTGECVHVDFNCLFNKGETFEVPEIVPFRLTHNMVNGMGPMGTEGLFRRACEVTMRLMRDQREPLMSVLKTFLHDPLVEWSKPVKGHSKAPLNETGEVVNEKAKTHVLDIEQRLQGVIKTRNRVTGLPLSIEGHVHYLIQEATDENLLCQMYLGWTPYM

[17] = molecular target: T1, Serine/threonine-protein kinase ATR; assay: Inhibition of ATR (unknown origin) using peptide as substrate at 0.1 uM preincubated for 10 mins followed by substrate addition by microplate reader analysis
Target sequence in this assay (Q13535 whole entry, looked up): as the sequence (Q13535 whole entry) above

[18] = molecular target: Serine/threonine-protein kinase mTOR (Homo sapiens, UniProt P42345); assay: Inhibition of mTOR (unknown origin) using peptide as substrate preincubated for 10 mins followed by substrate addition by microplate reader analysis
in vitro [19] = settings: human, liver microsomes
in vitro [20] = settings: rat, liver microsomes
in vitro [21] = settings: rat, liver microsomes; remark: listed apart in the source
[22] = MRT(t) in Sprague-Dawley rat at 5 mg/kg, po and measured upto 24 hrs by LC-MS analysis; format: ADME, organism-based; settings: in vivo
in vitro [23] = settings: human, liver microsomes; remark: listed apart in the source
[24] = Cmax in Sprague-Dawley rat at 5 mg/kg, po and measured upto 24 hrs by LC-MS analysis; format: ADME, organism-based; set-up: time < 24 hrs, dose 5 mg/kg, route po; settings: in vivo
[25] = MRT (0 to infinity) in Sprague-Dawley rat at 1 mg/kg, iv and measured upto 24 hrs by LC-MS analysis; format: ADME, organism-based; settings: in vivo
[26] = Clearance in Sprague-Dawley rat at 1 mg/kg, iv and measured upto 24 hrs by LC-MS analysis; format: ADME, organism-based; settings: in vivo
[27] = MRT (0 to infinity) in Sprague-Dawley rat at 5 mg/kg, po and measured upto 24 hrs by LC-MS analysis; format: ADME, organism-based; settings: in vivo
[28] = Half life in Sprague-Dawley rat at 1 mg/kg, iv and measured upto 24 hrs by LC-MS analysis; format: ADME, organism-based; settings: in vivo
in vitro [29] = settings: human, liver microsomes; remark: listed apart in the source
[30] = AUC (0 to infinity) in Sprague-Dawley rat at 5 mg/kg, po and measured upto 24 hrs by LC-MS analysis; format: ADME, organism-based; set-up: time < 24 hrs, dose 5 mg/kg, route po; settings: in vivo
[31] = MRT(t) in Sprague-Dawley rat at 1 mg/kg, iv and measured upto 24 hrs by LC-MS analysis; format: ADME, organism-based; settings: in vivo
[32] = Half life in Sprague-Dawley rat at 5 mg/kg, po and measured upto 24 hrs by LC-MS analysis; format: ADME, organism-based; settings: in vivo
[33] = AUCt in Sprague-Dawley rat at 1 mg/kg, iv and measured upto 24 hrs by LC-MS analysis; format: ADME, organism-based; set-up: dose 1 mg/kg, time < 24 hrs, route iv; settings: in vivo
[34] = AUC(0 to infinity) in Sprague-Dawley rat at 1 mg/kg, iv and measured upto 24 hrs by LC-MS analysis; format: ADME, organism-based; set-up: time < 24 hrs, dose 1 mg/kg, route iv; settings: in vivo
[35] = Oral bioavailability in Sprague-Dawley rat at 5 mg/kg and measured upto 24 hrs by LC-MS analysis; format: ADME, organism-based; settings: in vivo
in vitro [36] = settings: rat, liver microsomes; remark: listed apart in the source
[37] = Tmax in Sprague-Dawley rat at 5 mg/kg, po and measured upto 24 hrs by LC-MS analysis; format: ADME, organism-based; settings: in vivo
[38] = Volume of distribution at steady state in Sprague-Dawley rat at 1 mg/kg, iv and measured upto 24 hrs by LC-MS analysis; format: ADME, organism-based; settings: in vivo, read-out: Vdss
[39] = AUCt in Sprague-Dawley rat at 5 mg/kg, po and measured upto 24 hrs by LC-MS analysis; format: ADME, organism-based; set-up: time < 24 hrs, dose 5 mg/kg, route po; settings: in vivo
LoVo [40] = assay: Antiproliferative activity against ATM-deficient human LoVo cells assessed as reduction in cell proliferation at 0.1 to 25 uM incubated for 3 days by MTT assay; format: functional, cell-based; settings: dose 0.1-25 µM, time 3.0 day
HT-29 [41] = assay: Antiproliferative activity against ATM-proficient human HT-29 cells assessed as reduction in cell proliferation at 0.5 to 22 uM incubated for 3 days by MTT assay; format: functional, cell-based; settings: dose 0.5-22 µM, time 3.0 day

## C[C@@H]1COCCN1c1cc(C2(S(C)(=O)=O)CC2)nc(-c2cccc3[nH]ccc23)n1
A549 [1]
  pIC50: 6.48
HT-29 [2]
  pIC50: 6.19
OVCAR-3
  pIC50: 6.25
MCF7 [3]
  pIC50: 5.64
LoVo [4]
  pIC50: 6.64
A549 [5]
  pIC50: 6.32
MDA-MB-231 [6]
  pIC50: 6.60
SW-620
  pIC50: 6.14
A549 [7]
  pIC50: 6.31
MDA-MB-231 [8]
  pIC50: 5.53
MCF7 [9]
  pIC50: 5.91
HCT-116 [10]
  pIC50: 6.59
HCT-116 [11]
  pIC50: 7.04
HCT-116 [12]
  pIC50: 6.82
HT-29 [13]
  pIC50: 7.14
A549 [14]
  pIC50: 6.13
HCT-116 [15]
  pIC50: 6.86

## CC(C)n1c(=O)n(C)c2cnc3cc(F)c(-c4ccc(OCCCN5CCCCC5)nc4)cc3c21 [AZD-1390]
HT-29 [2]
  pIC50: < 4.52
HCT-116 [10]
  pIC50: 4.98
A549 [14]
  pIC50: 4.37

## C[C@@H]1COCCN1c1nc(-c2cccc3[nH]ccc23)nc2c1CCN(S(C)(=O)=O)C2(C)C
[16]
  pIC50: 7.74
[17]
  inhibition: 88.7%
[18]
  pIC50: 6.80

## COc1cccc(C(=O)N2Cc3c(N4CCOC[C@H]4C)nc(-c4cccc5[nH]ccc45)nc3C2(C)C)c1
In vitro [19]
  microsomal CLint at 1 h, 1 µM: 51.6 µL/min/mg
HT-29 [2]
  pIC50: 6.45
In vitro [20]
  CLint scaled at 1 h, 1 µM: 36.2 mL/min/kg
In vitro [21]
  half-life at 1 h, 1 µM: 1.17 h
[22]
  MRT last at 24 h: 2.7 h
[16]
  pIC50: 8.40
In vitro [23]
  half-life at 1 h, 1 µM: 0.447 h
[24]
  Cmax: 86.2 ng/mL
[25]
  MRT inf: 1.08 h
LoVo [4]
  pIC50: 6.82
[26]
  clearance: 20.1 mL/min/kg
[27]
  MRT inf: 3.08 h
[28]
  half-life: 1.28 h
In vitro [29]
  CLint scaled at 1 h, 1 µM: 48.8 mL/min/kg
[30]
  AUC(0-inf): 342 ng·h/mL
[31]
  MRT last at 24 h: 1.02 h
[32]
  half-life: 1.87 h
[33]
  AUC(0-t) at 24 h: 835 ng·h/mL
[34]
  AUC(0-inf): 840 ng·h/mL
[35]
  bioavailability: 8.1%
In vitro [36]
  microsomal CLint at 1 h, 1 µM: 20.1 µL/min/mg
[37]
  Tmax: 0.667 h
[38]
  Vd: 1.3 L/kg
[39]
  AUC(0-t) at 24 h: 323 ng·h/mL

## C[C@@H]1COCCN1c1nc(-c2cccc3[nH]ccc23)nc2c1CCN(Cc1ccccc1)C2(C)C
[17]
  inhibition: 14.6%

## CC(=O)c1cccc(C(=O)N2Cc3c(N4CCOC[C@H]4C)nc(-c4cccc5[nH]ccc45)nc3C2(C)C)c1
In vitro [19]
  microsomal CLint at 1 h, 1 µM: 339 µL/min/mg
HT-29 [2]
  pIC50: 6.37
In vitro [20]
  CLint scaled at 1 h, 1 µM: 218 mL/min/kg
In vitro [21]
  half-life at 1 h, 1 µM: 0.192 h
[16]
  pIC50: 8.40
In vitro [23]
  half-life at 1 h, 1 µM: 0.0685 h
LoVo [40]
  Activity: Dose-Dependent Effect
LoVo [4]
  pIC50: 6.95
In vitro [29]
  CLint scaled at 1 h, 1 µM: 320 mL/min/kg
HT-29 [41]
  Activity: Dose-Dependent Effect
In vitro [36]
  microsomal CLint at 1 h, 1 µM: 121 µL/min/mg
